Ends that are not written are not given here.
How the values were obtained:
PD-L1 = PD-L1 expression in cell lines of other cancer types (PANC-1, H1299, SK-Hep1) expressing RL peptide; format: cell-based, human; details: listed as RL-S249/T252D peptide
Description: FIGS. 12A-C. (A, B) PANC-1, H1299, and SK-Hep1 were infected with lentivirus expressing control or RB-specific shRNAs following puromycin selection. 48 hours post infection, cells were transfected with indicated construct. 24 hours after transfection, cells were harvested for western blotting (A) and RT-qPCR (B). All data were shown as mean values±SD (n=3). “ns”=not significant, *** P<0.001. (C) Western blot analysis of expression of PD-L1, RB, pRB-S249/T252, pRB-5795, and ERK2 in prostate cancer cell lines indicated.
Total RNA was isolated using TRIzol reagent (Thermo Fisher Scientific). The NanoDrop 2000 spectrophotometer (Thermo Fisher Scientific) was used to assess RNA yield and quality. RNA was reversely transcribed using Superscript reverse transcriptase (Thermo Fisher Scientific) following manufacturer's instructions. Quantitative real-time PCR was performed by mixing cDNA, gene-specific primers, and IQ SYRB Green Supermix and detected by iCycler QTX detection system (Bio-Rad). The 2-ΔCt method was used to quantitate fold changes by normalizing to GAPDH. Primers for RT-qPCR are provided Table 4.
Cells were harvested and lysed by IP buffer, and the supernatant was quantified by BCA protein quantification assay. Equal amounts of protein sample were added into 4× sample buffer and boiled for 5 minutes. […]

PTEN-CaP8 tumors = assay: PTEN-CaP8 mice tumor model, tumor growth; format: in vivo, mouse; details: C57BL/6 mice, s.c. PTEN-CaP8 tumors
Description: FIGS. 6A-J. The small S249/T252 phosphorylation-mimicking polypeptide of RB blocks irradiation-induced PD-L1 expression and inhibits cancer immune evasion. (A, B) PC-3 cells were infected with lentivirus expressing control shRNA or p65-specific or shRNA. 24 hours after puromycin selection, cells were treated with or without gamma irradiation (IR) (12 Gy). 48 hours after IR treatment, cells were harvested for western blotting analysis (A) and RT-qPCR analysis (B). All data were shown as mean values±SD (n=3). * P<0.05, ** P<0.01, *** P<0.001. (C, D) PC-3 cells were treated with without gamma irradiation (12 Gy). Cells were harvested at the indicated time point for western blotting analysis (C) and RT-qPCR analysis (D). All data were shown as mean values±SD (n=3). * P<0.05, ** P<0.01, *** P<0.001. (E) Western blot analysis of WCL and co-IP samples in PC-3 cells 48 hours after treated with or without gamma irradiation (12 Gy). […] (J) The absolute number of CD45^+CD8^+ T cells, CD45^+CD4^+ T cells, and CD11b^+Gr1^+ myeloid cells of implanted PTEN-CaP8 in tumors treated with indicated agents was analyzed by FACS. […]
6-week-old C57BL/6 mice (Jackson Lab) were used for animal experiments. […] The volume of xenografts was measured every other day and calculated using the formula L×W2×0.5. […]

“RL-S249D/T252D: S249/T252 phospho-mimicking R-Linker (RL) peptide: fragment of RB-N containing 21 amino acids surrounding S249/T252, expressed SFB-tagged or by lentivirus (NGDPRDPRRGQNRSARIAKQL; also: expressed SFB-tagged (tag left off))” was tested, and the “PD-L1 expression in cell lines of other cancer types” value (PD-L1) was “inhibited”, the “tumor growth, agent combined with gamma irradiation” value (PTEN-CaP8 tumors; 12 Gy) was “tumors regressed” and the “tumor growth, agent without irradiation” value (PTEN-CaP8 tumors; anti-PD-L1 200 μg or lentiviral peptide expression) was “markedly inhibited”.
